In patent publication US20150056166A1, “FLAVONE DERIVATIVES AND THEIR USE” (Twincore GmbH, priority 2012, published 2015):

Experiments:
Assay type in all cases: cell-based, HCV
J4 (GT1b) = experiment: Luciferase infection assay, chimeric reporter virus J4/1b/R2a in Huh7-Lunet/CD81 cells; conditions: Hepatitis C virus, Huh-7, 72 h
S52 (GT3a) = experiment: Luciferase infection assay, chimeric reporter virus S52/3a/R2a in Huh7-Lunet/CD81 cells; conditions: Hepatitis C virus, Huh-7, 72 h
Luc-Jc1 reporter viruses = experiment: Drug added before, during or after inoculation with Luc-Jc1 reporter virus (FIG. 2C); conditions: luciferase 72 h
Description: (A) Huh7-Lunet/CD81 cells were transfected with the subgenomic luciferase replicon depicted at the top. Drugs were added 4 h post transfection and the level of HCV RNA translation and RNA replication was quantified by luciferase assays 72 h post transfection. Mean values of three independent experiments each with quadruplicate measurements including the standard deviation are shown. (B) Cells were transfected with the Jc1 chimera depicted above and drugs were added 4 h later. HCV virus release in the presence or absence of given compounds was determined by quantification of intracellular and extracellular core protein levels using a core-specific ELISA. […] Infectivity was determined 72 h later by luciferase assays and compared to DMSO-treated controls. […]
Huh7-Lunet/CD81 cells were infected with reporter virus particles essentially as described recently (Koutsoudakis et al., J. Virol. 2006; 80: 5308-5320). […] Cells were inoculated for 4 h at 37° C., viral inoculum was replaced by fresh culture fluid and infection was quantified 48 h or 72 h after virus inoculation using luciferase assays. […] Cells infected with the renilla reporter virus were lysed in 200 μl lysis buffer (Promega, Mannheim, Germany) and after addition of the luciferase substrate (1 μM of coelenterazin (P. J. K., Kleinblittersdorf, Germany) in PBS) measured for 1 s in a luminometer (Lumat LB9507, Berthold, Freiburg, Germany). […]

JcR-2a virus = experiment: microbe, parasite or virus in culture
Description: Combined effects of CsA on BJ486K and vice versa were analysed by inoculation of Huh7-Lunet/CD81 cells with JcR-2a virus in the presence of given drugs and determination of luciferase activity 72 h later. Mean values of three independent experiments each conducted in triplicates including the standard deviations are given. Data are normalized for values determined in mock treated controls.
Huh7-Lunet/CD81 cells were infected with reporter virus particles essentially as described recently (Koutsoudakis et al., J. Virol. 2006; 80: 5308-5320). Briefly, for inoculation with firefly luciferase reporter virus particles (Luc-Jc1) and Renilla reporter viruses (JcR-2a (Reiss et al., Cell host & microbe 2011; 9: 32-45) and GT1-6, see plasmids below), Huh7-Lunet/CD81 cells were seeded at a density of 6×10 e4 cells per well of a 12-well plate or 6.6×10 e3 cells per well of a 96-well plate 24 h prior to inoculation. If not stated otherwise, the virus particles were pretreated with the inhibitors for 1 h at 37° C. Cells were inoculated for 4 h at 37° C., viral inoculum was replaced by fresh culture fluid and infection was quantified 48 h or 72 h after virus inoculation using luciferase assays. To this end, cells were washed once with PBS and in the case of the Luc-Jc1 infected cells, lysed directly on the plate with 350 μl of cold lysis buffer (0.1% Triton-X100, 25 mM glycylglycine, 15 mM MgSO4, 4 mM EGTA and 1 mM dithiothreitol, pH 7.8) and after addition of the luciferase solution (200 μM luciferin, 25 mM glycylglycine, pH8) measured for 20 s in a luminometer (Lumat LB9507, Berthold, Freiburg, Germany). Cells infected with the renilla reporter virus were lysed in 200 μl lysis buffer (Promega, Mannheim, Germany) and after addition of the luciferase substrate (1 μM of coelenterazin (P. J. K., Kleinblittersdorf, Germany) in PBS) measured for 1 s in a luminometer (Lumat LB9507, Berthold, Freiburg, Germany). The indicated IC50 values were determined by using Sigma Plot software (Systat Inc; San Jose; Calif.). […]

SMILES: COc1ccc(-c2cc(=O)c3c(O)c(O)c(OC)cc3o2)cc1 [BJ486K, 5,6-Dihydroxy-7-methoxy-2-(4-methoxy-phenyl)-chromen-4-one]
- IC50 (J4 (GT1b)): 2.35 µM
- IC90 (J4 (GT1b)): 9.29 µM
- IC50 (S52 (GT3a)): 2.89 µM
- IC90 (S52 (GT3a)): 10.7 µM
- interference with HCV infection by time of addition (Luc-Jc1 reporter viruses): only interfered with HCV infection when the drug was present during virus inoculation
- decrease of the IC50 of BJ486K (JcR-2a virus; 100 ng/mL of CsA): ca. 3 fold
- IC90 (JcR-2a virus; Hepatitis C virus, Huh-7, 72 h): 4.37 µM
- IC50 (JcR-2a virus; Hepatitis C virus, Huh-7, read-out: IC50 of BJ486K): ~0.4 µM
